From USRE38963E1, “Pyrazoline derivatives, their preparation and application as medicaments” (Laboratorios del Dr. Esteve, priority 1998, dated 2006) come the findings set out here.

The structures appear in SMILES notation. Read-outs that look alike come from different tables or passages of the source.

For one series, the system named is gastric ulcers in rats. The experiment in a line: Gastrointestinal effects: induction of ulcers in rats submitted to cold stress. Type of series: in vivo. The following applies: rat, po; for Maximum non-Ulcerogenic dose: linear regression of dose-response. Here is the method:
Gastrointestinal Effects (GI): Induction of Ulcers in Rats Submitted to Cold Stress
In this assay possible ulcerogenic effects at a gastrointestinal level were determined after oral administration. […] Firstly the rats received the products under study orally at different doses. After two hours had elapsed the rats were placed in a chest freezer at −15° C. for 1 hour. Afterwards they were left for 1 hour at room temperature The animals were then sacrificed and the stomach extracted. The stomach was kept in saline solution for 15 minutes After this time the percentage of surface area with gastric ulcers was determined using a Project C.S.V. vs 1.2 image analyser for each stomach.

The test system of series [1] is carrageenan pre-inflamed rat paw. The experiment in a line: Analgesic activity against hyperalgesia by thermal stimulus of pre-inflamed rat paw. The following applies: for % Activity, analgesic activity against hyperalgesia by thermal stimulus: dose 40 mg/kg po, 2 h after treatment; for ED50: po, read-out: ED-50 of analgesic activity against hyperalgesia by thermal stimulus. Type of series: in vivo. Here is the method:
Analgesic Activity Against “Hyperalgesia” by Thermal Stimulus of Pre-inflamed Rat Paw
In this assay the analgesic activity in rat was monitored following the method described by K. Hargreaves et al. (Pain, 1988, 32, 77-78). Firstly, a suspension of carrageenan was injected into the back right paw of each rat. After two hours the products under study were administered orally at a screening dose of 40 mg/kg. Two hours after treatment a heat source was applied to the sole of each back paw of the rats and the time measured that they took to remove the paw measured. Hyperalgesia was determined by comparing the percentage of algesia of the paw injected with carrageenan to the other back paw. The analgesic activity was calculated comparing these hyperalgesia values of the groups treated with product with those of the group treated with the vehicle only.

Series [2] deals with secondary inflammation of paw (experimental arthritis). The experiment in a line: Anti-arthritic activity in rat (Freund adjuvant). Type of series: in vivo. The following applies: 10 mg/kg/day po for 11 days. The method, then:
Anti-arthritic Activity in Rat
In this study the anti-arthritic activity in rat of the compound of example 3 has been studied. To do so the method described by B. J. Jaffee et al. (Agents and Actions, 1989, 27, 344-346) was followed. Firstly, the Freund adjuvant was injected (Mycobacterium butiricum suspended in soy-bean oil) through the sub-sole of the back left paw of the rats. After 14 days, when the secondary inflammation had developed in the uninjected paw, which is considered the experimental arthritis, treatment with the product under study or with the vehicle for the control group was started. The compound of example 3 was administered orally at a dose of 10 mg/kg/day for 11 days. The volume of the paw with secondary inflammation in the last days of treatment was measured. The anti-arthritic activity was calculated by comparing the average volume of the paw with secondary inflammation of the group treated with the compound of example 3 and the control group for 5 days.

Series [3] relates to COX-1 (PGE2 in gastric mucus). Kind of series: Inhibition of the synthesis of prostaglandins (PGE2) in gastric mucus in rat. Type of series: in vivo. The following applies: for inhibition at 40 mg/kg: read-out: Inhibition of PGE2, Gastric mucus; for ED50: read-out: ED-50, Inhibition of PGE2, Gastric mucus. Here is the method:
(§1) Inhibition of the Synthesis of Prostaglandins in Inflammatory Exudate and Mucus Membrane in Rat
(§2) The products under study are administered orally at an initial screening dose of 40 mg/kg One hour after treatment the rats were anaesthetised and a sponge soaked in carrageenan was implanted subcutaneously in the interscapular zone. Six hours after implantation the rats were sacrificed and the interscapular sponges extracted as well as gastric mucuous. Next the PGE2 content was determined by immunoassay for each one of the samples, in the sponge exudate on the one hand and in the gastric mucus on the other.

Series [4] has as its system COX-2/COX-1 (PGE2 in inflammatory exudate). Kind of series: Inhibition of the synthesis of prostaglandins (PGE2) in inflammatory exudate in rat, carrageenan sponge. The following applies: for inhibition at 40 mg/kg: read-out: Inhibition of PGE2, Inflammatory exudate; for ED50: read-out: ED-50, Inhibition of PGE2, Inflammatory exudate. Type of series: in vivo. Here is the method:
as §1, §2

`O=C(O)Cc1ccccc1Nc1c(Cl)cccc1Cl` [Dichlophenac]: in the series with gastric ulcers in rats (cold stress), the “Ulcerogenic effects (in words)” value is reported as “exhibited ulcerogenic effects at very low doses” and the “Maximum non-Ulcerogenic dose” value amounted to 1.2 mg/kg.
The melting point is the temperature, or range, at which the solid turns liquid. On to `Cc1ccc(C2CC(C(F)(F)F)=NN2c2ccc(S(N)(=O)=O)cc2)cc1` (centres unmarked) [Example 1, 1-(4-Aminosulphonylphenyl)-4,5-dihydro-5-(4-metylphenyl)-3-trifluoromethyl-1H-pyrazole], for which the melting point was 140 to 143 °C.
`CC1(c2ccccc2)CC(C(F)(F)F)=NN1c1ccc(S(N)(=O)=O)cc1` (centres unmarked) [Example 2, 1-(4-Aminosulphonylphenyl)-4,5-dihydro-5-phenyl-5-methyl-3-trifluoromethyl-1H-pyrazole] had a melting point of 60 to 66 °C.
The term inhibition denotes how much of the control response was suppressed. As for `NS(=O)(=O)c1ccc(N2N=C(C(F)(F)F)CC2c2ccc(F)cc2F)cc1` (centres unmarked) [Example 3, 1-(4-aminosulphonylphenyl)-5-(2,4-difluorophenyl)-4,5-dihydro-3-trifluoro methyl-1H-pyrazole], the “% Activity, analgesic activity against hyperalgesia by thermal stimulus” value (from here on “% Activity, analgesic activity”) in series [1] is on record as 100%. In addition, the ED50 in series [1] was 0.2 mg/kg; in series [3] (rat, po), > 40 mg/kg; in series [4] (rat, po), 36 mg/kg. The “Ulcerogenic effects (in words)” value in the series on gastric ulcers in rats (in vivo) was “not to have ulcerogenic effects, even at very high doses”. Moreover, the “Maximum non-Ulcerogenic dose” value in the series with gastric ulcers in rats (cold stress) was >80 mg/kg. Moreover, in series [2], the “Inhibition of secondary inflammation (anti-arthritic activity)” value came out at 71%. For the same molecule, the inhibition at 40 mg/kg in series [3] (rat, dose 40 mg/kg po) stood at 0%; in series [4] (rat, dose 40 mg/kg po) it was 92%.
Molecule `COC(=O)C1=NN(c2ccc(S(C)(=O)=O)cc2)C(c2ccc(C)cc2)C1` (centres unmarked) [Example 5, methyl 4,5-dihydro-5-(4-methylphenyl)-1-(4-methylsulphonylphenyl)-1H-pyrazole-3-carboxylate] returned a melting point of 156 to 157 °C.
On to `Cc1ccc(C2CC(C(N)=O)=NN2c2ccc(S(N)(=O)=O)cc2)cc1` (centres unmarked) [Example 6, 1-(4-aminosulphonylphenyl)-4,5-dihydro-5-(4-methylphenyl)-1H-pyrazole-3-carboxamide], for which the melting point fell in the range of 137 to 140 °C.
For the molecule `Cc1ccc(C2CC(C#N)=NN2c2ccc(S(C)(=O)=O)cc2)cc1` (centres unmarked) [Example 7, 3-cyano-4,5-dihydro-5-(4-methylphenyl)-1-(4-methylsulphonylphenyl)-1H-pyrazole], the melting point was in the range of 115 to 119 °C.
In the case of `CC(=O)NS(=O)(=O)c1ccc(N2N=C(C(F)(F)F)CC2c2ccc(F)cc2F)cc1` (centres unmarked) [Example 8, 1-(4-acetylaminosulphonylphenyl)-5-(2,4-difluorophenyl)-4,5-dihydro-3-trifluoromethyl-1H-pyrazole], the melting point lay within 154 to 156 °C.
Still for that read-out and setting: the figure for `Cc1ccc(C2CC(C(=O)O)=NN2c2ccc(S(N)(=O)=O)cc2)cc1` (centres unmarked) [Example 34, 1-(4-aminosulphonylphenyl)-4,5-dihydro-5-(4-methylphenyl)-1H-pyrazole-3-carboxylic acid] is 172 to 176 °C; for `COC(=O)C1=NN(c2ccc(S(C)(=O)=O)cc2)C(c2ccc(C)cc2)C1` (centres unmarked) [Example 39, methyl 4,5-dihydro-5-(4-methylphenyl)-1-(4-methylsulphonylphenyl)-1H-pyrazole-3-carboxylate] it is 155 to 160 °C.
With `Cc1ccc(C2CC(C(N)=O)=NN2c2ccc(S(N)(=O)=O)cc2)cc1` (centres unmarked) [Example 41, 1-(4-aminosulphonylphenyl)-4,5-dihydro-5-(4-methylphenyl)-1H-pyrazole-3-carboxamide], the melting point was in the range of 210 to 215 °C.
`Cc1ccc(C2CC(C(N)=O)=NN2c2ccc(S(C)(=O)=O)cc2)cc1` (centres unmarked) [Example 42, 4,5-dihydro-5-(4-methylphenyl)-1-(4-methylsulphonylphenyl)-1H-pyrazole-3-carboxamide]: the melting point lay within 128 to 132 °C.
The same measure, in the same setting: the figure for `Cc1ccc(C2CC(C#N)=NN2c2ccc(S(C)(=O)=O)cc2)cc1` (centres unmarked) [Example 43, 3-cyano-4,5-dihydro-5-(4-methylphenyl)-1-(4-methylsulphonylphenyl)-1H-pyrazole] is 162 to 164 °C; for `CC(=O)NS(=O)(=O)c1ccc(N2N=C(C(F)(F)F)CC2c2ccc(F)cc2F)cc1` (centres unmarked) [Example 64, 1-(4-acetylaminosulphonylphenyl)-5-(2,4-difluorophenyl)-4,5-dihydro-3-trifluoromethyl-1H-pyrazole] it is 172 to 174 °C.
For the molecule `Cc1cnc(NC(=O)C2=C(O)c3ccccc3S(=O)(=O)N2C)s1` [Meloxicam], the inhibition at 40 mg/kg in series [3] (Rattus norvegicus, po) was found to be 65%; in series [4] (Rattus norvegicus, po), 97%.
Regarding `COc1ccc2cc(CCC(C)=O)ccc2c1` [Nabumetone], the “% Activity, analgesic activity” value in series [1] was 95%. Also, the ED50 in series [1] was 2.1 mg/kg; in series [3] (rat, po), > 40 mg/kg; in series [4] (rat, po) it was 110 mg/kg. Further, the inhibition at 40 mg/kg is 0% in series [3] (rat, dose 40 mg/kg po) and 93% in series [4] (rat, dose 40 mg/kg po).
As for `CS(=O)(=O)Nc1ccc([N+](=O)[O-])cc1Oc1ccccc1` [Nimesulide], in series [1], the “% Activity, analgesic activity” value stood at 97% and the ED50 amounted to 1 mg/kg.
As to `CN1C(C(=O)Nc2ccccn2)=C(O)c2ccccc2S1(=O)=O` [Piroxicam], the “Ulcerogenic effects (in words)” value with gastric ulcers in rats (in vivo) was “exhibited ulcerogenic effects at very low doses”. The “Maximum non-Ulcerogenic dose” value with gastric ulcers in rats (cold stress) is reported as 1.7 mg/kg.
